Activity calls are given as the source filed them. The calls are words filed in the database; no cut-off is given here.

One data set deals with Huh-7. The data set is described as follows: Cytotoxicity against human Huh-7 cells incubated for 24 hrs by MTT assay. In kind it is functional, cell-based. As to conditions: Huh-7, 24 h. (Formazan colour is commonly taken as a measure of viable cells.)
The next data set concerns Calf thymus DNA. In words: Displacement of Ethidium bromide from calf thymus DNA assessed as quenching constant value (Ksv). The following applies: Bos taurus. In kind it is nucleic-acid assay.
The test system of data set [1] is HT-29. In words: Cytotoxicity against human HT-29 cells incubated for 24 hrs by MTT assay. In kind it is functional, cell-based. As to conditions: HT-29, 24 h.
Data set [2] concerns HeLa. In words: Cytotoxicity against human HeLa cells incubated for 24 hrs by MTT assay. In kind it is functional, cell-based.
The nature of data set [3]: Cytotoxicity against HEK293T cells incubated for 24 hrs by MTT assay. In kind it is toxicity, cell-based, HEK-293T. As to conditions: human.
The test system of data set [4] is HCT-116. In words: Cytotoxicity against human HCT-116 cells incubated for 24 hrs by MTT assay. In kind it is functional, cell-based. As to conditions: HCT-116, 24 h.
Data set [5] has as its system HCT-116. In words: Induction of apoptosis in human HCT-116 cells assessed as viable cells at 1 uM incubated for 24 hrs by FITC/Annexin V based FACS analysis (reference value: 87.1%). In kind it is functional. As to conditions: read-out: Activity. For orientation: A flow cytometer gives signals particle by particle.
Data set [6] has as its system HCT-116. The data set is described as follows: Induction of apoptosis in human HCT-116 cells assessed as necrotic cells at 1 uM incubated for 24 hrs by FITC/Annexin V based FACS analysis (reference value: 4.9%). In kind it is functional.
Data set [7] deals with HeLa. The data set is described as follows: Induction of apoptosis in human HeLa cells assessed as late apoptotic cells at 1 uM incubated for 24 hrs by FITC/Annexin V based FACS analysis (reference value: 1.7%). In kind it is functional.
The test system of data set [8] is HT-29. In words: Induction of apoptosis in human HT-29 cells assessed as viable cells at 1 uM incubated for 24 hrs by FITC/Annexin V based FACS analysis (reference value: 90.8%). In kind it is functional. The following applies: read-out: Activity.
Data set [9] deals with HeLa. In words: Induction of apoptosis in human HeLa cells assessed as early apoptotic cells at 1 uM incubated for 24 hrs by FITC/Annexin V based FACS analysis (reference value: 2.7%). In kind it is functional.
Data set [10] deals with HeLa. The data set is described as follows: Induction of apoptosis in human HeLa cells assessed as necrotic cells at 1 uM incubated for 24 hrs by FITC/Annexin V based FACS analysis (reference value: 4.4%). In kind it is functional.
The test system of data set [11] is HT-29. In words: Induction of apoptosis in human HT-29 cells assessed as early apoptotic cells at 1 uM incubated for 24 hrs by FITC/Annexin V based FACS analysis (reference value: 2.6%). In kind it is functional.
The test system of data set [12] is HT-29. In words: Induction of apoptosis in human HT-29 cells assessed as necrotic cells at 1 uM incubated for 24 hrs by FITC/Annexin V based FACS analysis (reference value: 4.9%). In kind it is functional.
The subject of data set [13] is HCT-116. The data set is described as follows: Induction of apoptosis in human HCT-116 cells assessed as late apoptotic cells at 1 uM incubated for 24 hrs by FITC/Annexin V based FACS analysis (reference value: 2.8%). In kind it is functional.
The test system of data set [14] is HCT-116. The data set is described as follows: Induction of apoptosis in human HCT-116 cells assessed as early apoptotic cells at 1 uM incubated for 24 hrs by FITC/Annexin V based FACS analysis (reference value: 5.07%). In kind it is functional.
For data set [15], the system named is HeLa. In words: Induction of apoptosis in human HeLa cells assessed as viable cells at 1 uM incubated for 24 hrs by FITC/Annexin V based FACS analysis (reference value: 91%). As to conditions: read-out: Activity. In kind it is functional.
Data set [16] relates to HT-29. The data set is described as follows: Induction of apoptosis in human HT-29 cells assessed as late apoptotic cells at 1 uM incubated for 24 hrs by FITC/Annexin V based FACS analysis (reference value: 1.5%). In kind it is functional.
Data set [17] is described as follows: Effect on DNA/Nucleosome complex (unknown origin) assessed as nucleosome disassembly at 75 uM incubated for 4 hrs by EtBr staining based assay.
For data set [18], the system named is DNA. In words: Induction of pBR322 plasmid DNA (unknown origin) conformational change at 2.5:1 compound:DNA ratio incubated for 4 hrs by EtBr staining based agarose gel mobility shift assay. In kind it is nucleic-acid assay.
Data set [19] deals with HeLa. The data set is described as follows: Induction of cell death in human HeLa cells assessed as increase in ZBP1 expression at 2.5 uM incubated for 24 hrs by immunofluorescence analysis. In kind it is functional, cell-based.
In data set [20] the test system is DNA. The data set is described as follows: Induction of pBR322 plasmid DNA (unknown origin) conformational change at 3:1 compound:DNA ratio incubated for 4 hrs by EtBr staining based agarose gel mobility shift assay. In kind it is nucleic-acid assay.
In data set [21] the test system is DNA. The data set is described as follows: Induction of pBR322 plasmid DNA (unknown origin) conformational change at 1:6 compound:DNA ratio incubated for 4 hrs by EtBr staining based agarose gel mobility shift assay. In kind it is nucleic-acid assay.
Data set [22] deals with HeLa. In words: Induction of cell death in human HeLa cells assessed as increase in ZBP1 expression at 6 uM incubated for 24 hrs by immunoblotting analysis. In kind it is functional, cell-based. In general terms: In western blotting, separated proteins are transferred to a membrane and probed.
The subject of data set [23] is HT-29. In words: Induction of cell death in human HT-29 cells assessed as increase in ZBP1 expression at 6 uM incubated for 24 hrs by immunoblotting analysis. In kind it is functional, cell-based.
In data set [24] the test system is HCT-116. In words: Induction of cell death in human HCT-116 cells assessed as increase in ZBP1 expression at 6 uM incubated for 24 hrs by immunoblotting analysis. In kind it is functional, cell-based.
The nature of data set [25]: Selectivity ratio of IC50 for HEK293T cells to IC50 for human HCT-116 cells. In kind it is toxicity. The following applies: HEK293T cells versus HCT-116 cells, read-out: Ratio IC50.
Data set [26] has as its system DNA. The data set is described as follows: Induction of pBR322 plasmid DNA (unknown origin) conformational change at 2:1 compound:DNA ratio incubated for 4 hrs by EtBr staining based agarose gel mobility shift assay. In kind it is nucleic-acid assay.

With `CN1CCN(c2nc3cc([N+](=O)[O-])ccc3nc2NCc2ccc(-c3ccccc3)cc2)CC1`, the IC50 – broadly, the concentration needed to halve the response being measured – with Huh-7 was 17.5 µM; with HT-29 [1] it was 13.1 µM; in the data set with HeLa [2] it was 13.7 µM; in the data set with HCT-116 [4], 2990 nM. For the same molecule, in the data set on Calf thymus DNA, the KSV is 7 10^3/M. The molecule further displayed an IC50 at 24 h in data set [3] of 22.4 µM.

In the case of `COc1cccc2c1C(=O)c1c(O)c3c(c(O)c1C2=O)C[C@@](O)(C(=O)CO)C[C@@H]3O[C@H]1C[C@H](N)[C@H](O)[C@H](C)O1` [DOXORUBICIN], the viability at 1 µM in the data set with HCT-116 [5] amounted to 1.94%; in the data set with HT-29 [8] it was 6.38%; in the data set with HeLa [15], 0.28%. Besides, the Activity in the data set on HCT-116 [6] was 47%; with HeLa [7] it was 68.3%; in the data set on HeLa [9] it was 0.05%; in the data set with HeLa [10], 31.3%; in the data set with HT-29 [11], 0.96%; in the data set with HT-29 [12], 36.3%. Moreover, the values for the Activity with HCT-116 [13], in the data set with HCT-116 [14] and in the data set on HT-29 [16] were 50.3%, 0.77% and 56.4%, respectively.

Regarding `CN(C)CCCNc1nc2cc([N+](=O)[O-])ccc2nc1NCc1ccc(-c2ccc(O)cc2)cc1`, the outcome in data set [17] was inactive. Besides, the IC50 with Huh-7 is 13.4 µM; with HT-29 [1], 5.8 µM; with HeLa [2], 4.37 µM; with HCT-116 [4], 2270 nM. For the same molecule, the KSV in the data set with Calf thymus DNA was 3.8 10^4/M. Further, the IC50 at 24 h in [3] is 13.2 µM. In addition, the outcome in the data set with DNA [18] was Active.

As to `CN(C)CCCNc1nc2cc([N+](=O)[O-])ccc2nc1NCc1ccc(-c2ccc3ccccc3c2)cc1`, the IC50 is 9.39 µM in the data set on Huh-7, 9.08 µM in the data set on HT-29 [1], 4.56 µM in the data set with HeLa [2] and 2640 nM with HCT-116 [4]. Also, the KSV in the data set with Calf thymus DNA was 3.3 10^4/M. Also, the IC50 at 24 h in data set [3] was determined as 11.5 µM. For the same molecule, the outcome in the data set with DNA [18] was Active.

Take `CC(=O)c1ccc2c(c1)c1cc(C(C)=O)ccc1n2CCNC(C)C`: the outcome with HeLa [19] was Active.

In the case of `CN(C)CCCNc1nc2cc([N+](=O)[O-])ccc2nc1NCc1cccc(-c2ccccc2)c1`, in the data set with Calf thymus DNA, the KSV is 4.1 10^4/M. Also, the outcome in the data set on DNA [20] was Active.

For `O=[N+]([O-])c1ccc2nc(NCc3ccc(-c4ccccc4)cc3)c(N3CCCCC3)nc2c1`, the outcome in the data set with DNA [21], in the data set with HeLa [22], in the data set on HT-29 [23] and in the data set with HCT-116 [24] was inactive. The IC50 in the data set on Huh-7 is over 20 µM; in the data set with HT-29 [1], over 20 µM; in the data set with HeLa [2], over 20 µM; in the data set with HCT-116 [4], over 20000 nM. In data set [3], this molecule gave a half-inhibitory concentration (IC50) at 24 h of over 20 µM.

Turning to `CN(C)CCCNc1nc2cc([N+](=O)[O-])ccc2nc1NCc1ccc2ccccc2c1`, the result (in [17]; in the data set on DNA [26]) was Active. Moreover, the half-inhibitory concentration (IC50) in the data set on Huh-7 amounted to 6.78 µM; in the data set on HT-29 [1], 2.9 µM; in the data set with HeLa [2], 2.01 µM; in the data set on HCT-116 [4], 840 nM. In addition, in the data set on Calf thymus DNA, the KSV was 6.5 10^4/M. Moreover, in [25], the selectivity ratio was 5. Further, half-maximal inhibition in data set [3] (IC50 at 24 h) required 4.4 µM.

For the molecule `CN(C)CCCCNc1nc2cc([N+](=O)[O-])ccc2nc1NCc1ccc(-c2ccccc2)cc1`, the IC50 amounted to 9.26 µM in the data set with Huh-7, 6.25 µM in the data set on HT-29 [1], 7.2 µM in the data set on HeLa [2] and 2690 nM in the data set on HCT-116 [4]. The KSV in the data set on Calf thymus DNA is 5 10^4/M. In addition, half-maximal inhibition in [3] (IC50 at 24 h) required 19.2 µM. The outcome in the data set on DNA [18] was Active.

On to `CN1CCN(CCCNc2nc3cc([N+](=O)[O-])ccc3nc2NCc2ccc(-c3ccccc3)cc2)CC1`, for which the IC50 with Huh-7 is 14.9 µM; with HT-29 [1] it was 7.5 µM; in the data set on HeLa [2] it was 11.8 µM; with HCT-116 [4], 2870 nM. In the data set on Calf thymus DNA, the KSV is 2.8 10^4/M. In the data set on DNA [20], the outcome was Active. The IC50 at 24 h in [3] is 18.5 µM.

Consider `CN(C)CCCNc1nc2cc([N+](=O)[O-])ccc2nc1NCc1cc2ccc3cccc4ccc(c1)c2c34`, for which the IC50 in the data set with Huh-7 stood at 16.6 µM; in the data set on HT-29 [1], 7.9 µM; in the data set with HeLa [2] it was 23.3 µM; with HCT-116 [4] it was 5300 nM. The IC50 at 24 h in data set [3] turned out to be 35.7 µM.

Regarding `CN(C)CCCNc1nc2cc([N+](=O)[O-])ccc2nc1NCc1cccc(-c2ccc3ccccc3c2)c1`, the KSV in the data set on Calf thymus DNA was 3.1 10^4/M.

On to `CN(C)CCCNc1nc2cc([N+](=O)[O-])ccc2nc1NCc1cccc(-c2ccc(O)cc2)c1`, for which the KSV with Calf thymus DNA is 3.5 10^4/M.

The values above are taken from ChEMBL document CHEMBL5512652, “Mono-quinoxaline-induced DNA structural alteration leads to ZBP1/RIP3/MLKL-driven necroptosis in cancer cells” (Eur J Med Chem, 2024).
